# Experimental data reported in patent US20090105305A1, “Therapeutic Agents - 550” (AstraZeneca AB, priority 2006, published 2009).
# Molecular target: T1, human Fatty Acid Synthase (Homo sapiens, UniProt P49327)
# T1 construct: made in house
# Assay: Human FAS enzyme assay (decrease in NADPH fluorescence)
# Format: biochemical
# Details: % inhibition at a concentration of 100 micromolar
# Description: The compounds of the present invention are Fatty Acid Synthase inhibitors. […] Human and Rat FAS Enzyme Assay.
# Fatty acid synthase is an enzyme complex that harbours seven enzymatic activities catalysing the reductive synthesis of long chain fatty acids from acetyl CoA and malonyl CoA to palmitate. When acetyl CoA and malonyl CoA are forming palmitate NADPH is consumed forming NADP. Since NADPH is fluorescent but not NADP the reaction can be measured by analysing the decrease in fluorescence.
# Compounds were added to a black 384 well plate (Matrix) in a volume of 5 μl consisting of 20% DMSO and 80% Tris buffer pH 7.5, at a top concentration of 1 mM. NADPH, 30 μl of 166.6 μM, formulated in assay buffer (0.1M Tris ph7.5, 0.1 mM EDTA, 1 mM glutathione, 0.05% BSA), was then added to all of the wells of the plate. Fatty acid synthase Human or rat enzyme (0.4 μg, produced in house), dissolved in 20 mM Tris/HCl pH 7.5, 5 mM BOG, 1 mM TCEP, 10% glycerol, 1 mM EDTA, 150 mM NaCl, was then added to the plate in a volume of […]. Enzyme was added to all but the last two columns of the plate, to which, 10 μl of assay buffer was added (0.1M Tris ph7.5, 0.1 mM EDTA, 1 mM glutathione, 0.05% BSA) to provide a no enzyme assay control. Following a 15-minute incubation period, at room temperature, the plates were read on an Envision plate reader using 340 nm excitation and 460 nm emission filters. This served as a time zero background read. Substrates (an equal mix of both malonyl and acetyl CoA) were then added to the plates in a total volume of 5 μl. The concentrations of malonyl and acetyl CoA in the mixture were 500 μM and 150 μM respectively. Both were prepared as 10 mM stock solutions in distilled water and were subsequently diluted to working concentrations in assay buffer. Plates were then incubated for a further 60 minutes, at room temperature, before being read again on the Envision reader using the same parameters as previously used. The data was analysed by subtracting the background time zero data from that generated following the final 60 minute incubate and the percent inhibition compared to the maximum and minimum assay controls was determined. Sigmoid curves were fitted using Origin 7.5 Client software and IC50 values were determined.
# T1 sequence (P49327 whole entry): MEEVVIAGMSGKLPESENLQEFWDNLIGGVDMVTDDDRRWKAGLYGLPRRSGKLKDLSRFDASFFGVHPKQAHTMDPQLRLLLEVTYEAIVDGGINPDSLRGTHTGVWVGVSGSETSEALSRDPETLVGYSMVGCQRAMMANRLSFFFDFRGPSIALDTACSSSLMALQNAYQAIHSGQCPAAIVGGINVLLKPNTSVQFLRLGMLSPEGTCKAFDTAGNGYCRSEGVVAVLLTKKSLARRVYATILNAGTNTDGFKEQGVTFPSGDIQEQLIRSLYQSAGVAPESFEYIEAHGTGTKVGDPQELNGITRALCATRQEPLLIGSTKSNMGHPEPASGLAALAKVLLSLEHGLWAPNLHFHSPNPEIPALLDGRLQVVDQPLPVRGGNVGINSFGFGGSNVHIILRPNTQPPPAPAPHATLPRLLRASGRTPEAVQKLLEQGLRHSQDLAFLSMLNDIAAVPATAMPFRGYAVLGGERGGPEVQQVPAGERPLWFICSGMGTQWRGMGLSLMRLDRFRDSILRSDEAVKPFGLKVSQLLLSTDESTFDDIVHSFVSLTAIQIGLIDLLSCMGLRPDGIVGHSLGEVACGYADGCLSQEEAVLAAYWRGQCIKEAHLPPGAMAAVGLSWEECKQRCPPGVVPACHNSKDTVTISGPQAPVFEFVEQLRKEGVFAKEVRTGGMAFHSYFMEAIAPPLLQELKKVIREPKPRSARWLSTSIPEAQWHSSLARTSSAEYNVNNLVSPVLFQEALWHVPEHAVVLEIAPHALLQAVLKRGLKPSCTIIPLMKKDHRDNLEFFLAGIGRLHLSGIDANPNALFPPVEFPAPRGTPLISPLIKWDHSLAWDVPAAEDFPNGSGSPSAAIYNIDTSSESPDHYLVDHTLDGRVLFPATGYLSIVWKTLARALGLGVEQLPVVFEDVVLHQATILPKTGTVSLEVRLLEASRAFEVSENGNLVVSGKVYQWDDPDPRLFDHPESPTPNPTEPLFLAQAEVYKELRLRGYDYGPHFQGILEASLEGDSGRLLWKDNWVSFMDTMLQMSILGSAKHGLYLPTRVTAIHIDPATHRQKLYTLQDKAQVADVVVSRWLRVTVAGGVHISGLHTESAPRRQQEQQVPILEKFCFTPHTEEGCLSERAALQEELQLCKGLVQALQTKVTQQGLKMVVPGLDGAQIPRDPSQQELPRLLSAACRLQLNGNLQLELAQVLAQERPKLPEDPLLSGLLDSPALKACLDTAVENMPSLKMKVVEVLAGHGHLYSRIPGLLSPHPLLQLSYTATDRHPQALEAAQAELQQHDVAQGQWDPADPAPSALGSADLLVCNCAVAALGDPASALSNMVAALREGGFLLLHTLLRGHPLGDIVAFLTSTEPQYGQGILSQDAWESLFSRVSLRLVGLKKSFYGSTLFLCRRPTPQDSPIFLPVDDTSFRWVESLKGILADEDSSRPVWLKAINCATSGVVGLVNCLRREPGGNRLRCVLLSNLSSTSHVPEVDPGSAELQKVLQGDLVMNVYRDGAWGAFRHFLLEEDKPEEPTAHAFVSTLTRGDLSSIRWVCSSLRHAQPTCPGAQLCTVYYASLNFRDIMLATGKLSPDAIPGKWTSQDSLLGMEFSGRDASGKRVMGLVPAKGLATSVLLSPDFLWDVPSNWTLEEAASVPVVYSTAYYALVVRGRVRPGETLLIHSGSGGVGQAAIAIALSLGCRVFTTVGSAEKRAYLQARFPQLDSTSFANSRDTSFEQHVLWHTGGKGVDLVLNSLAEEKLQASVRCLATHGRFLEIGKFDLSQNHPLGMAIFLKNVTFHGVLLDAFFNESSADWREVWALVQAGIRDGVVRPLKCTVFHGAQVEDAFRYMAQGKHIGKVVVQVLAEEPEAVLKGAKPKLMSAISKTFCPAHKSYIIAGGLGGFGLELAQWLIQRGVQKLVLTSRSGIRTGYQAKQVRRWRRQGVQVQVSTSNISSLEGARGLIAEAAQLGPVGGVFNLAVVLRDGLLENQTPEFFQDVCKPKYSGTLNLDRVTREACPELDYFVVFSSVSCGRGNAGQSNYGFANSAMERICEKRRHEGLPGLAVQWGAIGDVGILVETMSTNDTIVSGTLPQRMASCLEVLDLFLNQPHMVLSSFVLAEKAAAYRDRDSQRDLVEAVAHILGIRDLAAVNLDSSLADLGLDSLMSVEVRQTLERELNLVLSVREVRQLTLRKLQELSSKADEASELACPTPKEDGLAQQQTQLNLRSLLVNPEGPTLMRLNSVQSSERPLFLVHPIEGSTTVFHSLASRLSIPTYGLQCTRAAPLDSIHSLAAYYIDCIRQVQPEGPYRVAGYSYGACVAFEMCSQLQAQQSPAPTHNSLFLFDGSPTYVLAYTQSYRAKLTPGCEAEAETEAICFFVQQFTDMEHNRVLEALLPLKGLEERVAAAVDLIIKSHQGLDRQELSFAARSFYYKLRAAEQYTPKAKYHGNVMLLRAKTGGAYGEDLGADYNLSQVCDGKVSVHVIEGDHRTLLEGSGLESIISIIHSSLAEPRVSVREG
SMILES,inhibition at 100 µM,Inhib %
"Cc1ccc(C(=O)N2CCC(O)(c3ccc(C(F)(F)F)cc3)CC2)cc1NS(C)(=O)=O [Example 215, N-[5-[4-hydroxy-4-[4-(trifluoromethyl)phenyl]piperidine-1-carbonyl]-2-methylphenyl]methanesulfonamide]",56%,–
"Cc1ccc(C(=O)N2CCC(c3ccc(N(C)S(C)(=O)=O)cc3)CC2)cc1NS(C)(=O)=O [Example 230, N-[2-methyl-5-[4-[4-(methyl-methylsulfonylamino)phenyl]piperidine-1-carbonyl]phenyl]methanesulfonamide]",73.2%,–
"Cc1ccc(C(=O)N2CCC(c3ccc(CCCC(=O)O)cc3)CC2)cc1NS(=O)(=O)C1CCCCC1 [Example 246, 4-[4-[[13-(cyclohexylsulfonylamino)-4-methylbenzoyl]piperidin-4-yl]phenyl]butanoic acid]",–,92.8%
"COc1ccc(C(=O)N2CCC(c3ccc(C#N)cc3)CC2)cc1NS(C)(=O)=O [Example 6, N-[5-[4-(4-cyanophenyl)piperidine-1-carbonyl]-2-methoxy-phenyl]methanesulfonamide]",75%,–
"CSc1ccc(C(=O)N2CCC(c3ccc(C#N)cc3)CC2)cc1NS(C)(=O)=O [Example 159, N-[5-[4-(4-cyanophenyl)piperidine-1-carbonyl]-2-methylsulfanylphenyl]methanesulfonamide]",80%,–
"Cc1ccc(C(=O)N2CCC(c3ccc(Br)cc3)CC2)cc1NS(C)(=O)=O [Example 169, N-[5-[4-(4-bromophenyl)piperidine-1-carbonyl]-2-methylphenyl]methanesulfonamide]",90%,–
"Cc1ccc(Oc2ccc(C3CCN(C(=O)c4ccc(C)c(NS(C)(=O)=O)c4)CC3)cc2)nn1 [Example 229, N-[2-methyl-5-[4-[4-(6-methylpyridazin-3-yl)oxyphenyl]piperidine-1-carbonyl]phenyl]methanesulfonamide]",80.2%,–
"Cc1ccc(C(=O)N2CCC(c3ccc(C#N)cc3)CC2)cc1NS(=O)(=O)c1cccc(C(=O)N(C)C)c1 [Example 82, 3-[[5-[4-(4-cyanophenyl)piperidine-1-carbonyl]-2-methyl-phenyl]sulfamoyl]-N,N-dimethyl-benzamide]",93%,–
"Cc1ccc(C(=O)N2CCC(c3ccc(C#N)cc3)CC2)cc1NS(=O)(=O)c1ccccc1C(=O)NCCO [Example 207, 2-[[5-[4-(4-cyanophenyl)piperidine-1-carbonyl]-2-methylphenyl]sulfamoyl]-N-(2-hydroxyethyl)benzamide]",75%,–
"Cc1ccc(C(=O)N2CCC(c3ccc(C#N)cc3)CC2)cc1NS(=O)(=O)c1cnoc1C [Example 95, N-[5-[4-(4-cyanophenyl)piperidine-1-carbonyl]-2-methyl-phenyl]-5-methyl-1,2-oxazole-4-sulfonamide]",73%,–
"CC(=O)NCCS(=O)(=O)Nc1cc(C(=O)N2CCC(c3ccc(C#N)cc3)CC2)ccc1C [Example 78, N-[2-[[5-[4-(4-cyanophenyl)piperidine-1-carbonyl]-2-methyl-phenyl]sulfamoyl]ethyl]acetamide]",95%,–
"Cc1ccc(C(=O)N2CCC(c3ccc(C#N)cc3)CC2)cc1NS(=O)(=O)c1c(Cl)nc2sccn12 [Example 101, 7-chloro-N-[5-[4-(4-cyanophenyl)piperidine-1-carbonyl]-2-methyl-phenyl]-4-thia-1,6-diazabicyclo[3.3.0]octa-2,5,7-triene-8-sulfonamide]",98%,–
"Cc1ccc(C(=O)N2CCC(c3ccc(C#N)cc3)CC2)cc1NS(=O)(=O)c1ccc(Cl)s1 [Example 19, 5-chloro-N-[5-[4-(4-cyanophenyl)piperidine-1-carbonyl]-2-methyl-phenyl]thiophene-2-sulfonamide]",96%,–
"Cc1ccc(C(=O)N2CCC(c3ccc(CNC(=O)CO)cc3)CC2)cc1NS(C)(=O)=O [Example 241, 2-hydroxy-N-[[4-[1-(3-methanesulfonamido-4-methylbenzoyl)piperidin-4-yl]phenyl]methyl]acetamide]",81.5%,–
"Cc1ccc(C(=O)N2CCC(c3ccc(C#N)cc3)CC2)cc1NS(=O)(=O)C(C)(C)Cl [Example 224, 2-chloro-N-[5-[4-(4-cyanophenyl)piperidine-1-carbonyl]-2-methylphenyl]propane-2-sulfonamide]",108%,–
"COCC(=O)NCCS(=O)(=O)Nc1cc(C(=O)N2CCC(c3ccc(C#N)cc3)CC2)ccc1C [Example 87, N-[2-[[5-[4-(4-cyanophenyl)piperidine-1-carbonyl]-2-methyl-phenyl]sulfamoyl]ethyl]-2-methoxy-acetamide]",82%,–
"Cc1ccc(NS(=O)(=O)C(C)C)cc1C(=O)N1CCC(c2ccc(C#N)cc2)CC1 [Example 32, N-[3-[4-(4-cyanophenyl)piperidine-1-carbonyl]-4-methyl-phenyl]propane-2-sulfonamide]",85%,–
"Cc1ccc(C(=O)N2CCC(c3ccc(C#N)cc3)CC2)cc1NS(=O)(=O)CCCNCc1cccnc1 [Example 141, N-[5-[4-(4-cyanophenyl)piperidine-1-carbonyl]-2-methyl-phenyl]-3-(pyridin-3-ylmethylamino)propane-1-sulfonamide]",93%,–
"COC(=O)C(C)S(=O)(=O)Nc1cc(C(=O)N2CCC(c3ccc(C#N)cc3)CC2)ccc1C (stereo not drawn) [Example 137, Methyl 2-[[5-[4-(4-cyanophenyl)piperidine-1-carbonyl]-2-methyl-phenyl]sulfamoyl]propanoate]",97%,–
"Cc1ccc(C(=O)N2CCC(c3ccc(C#N)cc3)CC2)cc1NS(=O)(=O)c1c(C)nn(C)c1Cl [Example 100, 5-chloro-N-[5-[4-(4-cyanophenyl)piperidine-1-carbonyl]-2-methyl-phenyl]-1,3-dimethyl-pyrazole-4-sulfonamide]",90%,–
"Cc1ccc(NS(=O)(=O)Cc2ccc(F)cc2F)cc1C(=O)N1CCC(c2ccc(C#N)cc2)CC1 [Example 56, N-[3-[4-(4-cyanophenyl)piperidine-1-carbonyl]-4-methyl-phenyl]-1-(2,4-difluorophenyl)methanesulfonamide]",89%,–
"Cc1ccc(C(=O)N2CCC(c3ccc(C#N)cc3)CC2)cc1NS(=O)(=O)c1cccc(C(=O)NC(C)C)c1 [Example 85, 3-[[5-[4-(4-cyanophenyl)piperidine-1-carbonyl]-2-methyl-phenyl]sulfamoyl]-N-propan-2-yl-benzamide]",95%,–
"Cc1ccc(NS(=O)(=O)Cc2cccc(F)c2)cc1C(=O)N1CCC(c2ccc(C#N)cc2)CC1 [Example 52, N-[3-[4-(4-cyanophenyl)piperidine-1-carbonyl]-4-methyl-phenyl]-1-(3-fluorophenyl)methanesulfonamide]",91%,–
"CCCS(=O)(=O)Nc1cc(C(=O)N2CCC(c3ccc(C#N)cc3)CC2)c(C)cc1C [Example 117, N-[5-[4-(4-cyanophenyl)piperidine-1-carbonyl]-2,4-dimethyl-phenyl]propane-1-sulfonamide]",98%,–

# Same assay, conditions: compounds excluded from the claims by proviso
row,SMILES,IC50s in the range of about 0.001 μM to about 30 μM
1,COC(=O)c1ccc(C2CCN(C(=O)c3ccc(C)c(NS(C)(=O)=O)c3)CC2)cc1 [Methyl 4-[1-(3-methanesulfonamido-4-methylbenzoyl)piperidin-4-yl]benzoate],do not have IC50s in the range of about 0.001 μM to about 30 μM
2,Cc1ccc(C(=O)N2CCC(c3ccc(CC(=O)O)cc3)CC2)cc1NS(=O)(=O)C1CCCCC1 [2-[4-[1-[3-(cyclohexylsulfonylamino)-4-methylbenzoyl]piperidin-4-yl]phenyl]acetic acid],do not have IC50s in the range of about 0.001 μM to about 30 μM
3,Cc1ccc(C(=O)N2CCC(c3ccccc3)CC2)cc1NS(C)(=O)=O [N-[2-methyl-5-(4-phenylpiperidine-1-carbonyl)phenyl]methanesulfonamide],do not have IC50s in the range of about 0.001 μM to about 30 μM
4,"Cc1ccc(C(=O)N2CCC(c3ccc(C(=O)N(C)C)cc3)CC2)cc1NS(C)(=O)=O [4-[1-(3-methanesulfonamido-4-methylbenzoyl)piperidin-4-yl]-N,N-dimethylbenzamide]",do not have IC50s in the range of about 0.001 μM to about 30 μM

# Same assay, conditions: unit inferred
row,SMILES,IC50
1,"Cc1ccc(C(=O)N2CCC(c3ccc(C#CCCO)cc3)CC2)cc1NS(C)(=O)=O [Example 251, N-[5-[4-[4-(4-hydroxybut-1-ynyl)phenyl]piperidine-1-carbonyl]-2-methylphenyl]methanesulfonamide]",0.663 µM
2,"Cc1ccc(C(=O)N2CCC(c3ccc(CNS(=O)(=O)CC(=O)O)cc3)CC2)cc1NS(C)(=O)=O [Example 253, 2-[[4-[1-(3-methanesulfonamido-4-methylbenzoyl)piperidin-4-yl]phenyl]methylsulfamoyl]acetic acid]",12.7 µM
